Measurements reported in patent US11377469B2, “CD73 inhibitors” (ORIC Pharmaceuticals, Inc., priority 2017, dated 2022).

Molecular target: CD73 (Homo sapiens (Human), UniProt P21589)
Assay: Biochemical Assay (CD73 inhibition, AMP hydrolysis, Malachite Green readout)
Conditions: CD73 0.3208 nM, AMP 15 μM, Tris-HCl pH 7.4, Malachite Green absorbance

CD73, sequence (P21589 27-574): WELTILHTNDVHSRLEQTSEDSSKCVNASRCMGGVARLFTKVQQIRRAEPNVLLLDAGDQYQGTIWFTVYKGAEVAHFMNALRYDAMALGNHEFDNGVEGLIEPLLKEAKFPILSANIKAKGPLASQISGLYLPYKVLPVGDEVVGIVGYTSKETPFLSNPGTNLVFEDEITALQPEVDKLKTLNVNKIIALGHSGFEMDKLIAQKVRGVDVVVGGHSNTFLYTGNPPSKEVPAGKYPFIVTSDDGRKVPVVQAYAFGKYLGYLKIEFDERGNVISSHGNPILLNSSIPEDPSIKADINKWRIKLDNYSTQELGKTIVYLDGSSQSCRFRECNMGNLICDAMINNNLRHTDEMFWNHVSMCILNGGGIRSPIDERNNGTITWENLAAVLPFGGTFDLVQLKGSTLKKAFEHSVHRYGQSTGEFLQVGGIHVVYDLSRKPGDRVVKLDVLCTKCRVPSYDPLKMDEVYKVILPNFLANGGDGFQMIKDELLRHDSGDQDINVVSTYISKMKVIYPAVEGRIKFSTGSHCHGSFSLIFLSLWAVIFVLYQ

How did the IC50 turn out when `O=P(O)(O)COC[C@H]1O[C@@H](n2ncc3c(N4CCCC4)nc(Cl)nc32)[C@H](O)[C@@H]1O` [Example 81, ((((2R,3S,4R,5R)-5-(6-chloro-4-(pyrrolidin-1-yl)-1H-pyrazolo[3,4-d]pyrimidin-1-yl)-3,4-dihydroxytetrahydrofuran-2-yl)methoxy)methyl)phosphonic acid] was run?
Its IC50 is no more than 500 nM.

`CC(C)(O)c1nc(NC2CCCC2)c2cnn([C@@H]3O[C@H](COCP(=O)(O)O)[C@@H](O)[C@H]3O)c2n1` [Example 132, ((((2R,3S,4R,5R)-5-(4-(cyclopentylamino)-6-(2-hydroxypropan-2-yl)-1H-pyrazolo[3,4-d]pyrimidin-1-yl)-3,4-dihydroxytetrahydrofuran-2-yl)methoxy)methyl)phosphonic acid] was tested. Which IC50 did it give?
Its IC50 is greater than 1000 nM.

For `C[C@H](Nc1nc(Cl)nc2c1cnn2[C@@H]1O[C@H](COCP(=O)(O)O)[C@@H](O)[C@H]1O)c1cccc(Cl)c1` [Example 34, ((((2R,3S,4R,5R)-5-(6-chloro-4-(((S)-1-(3-chlorophenyl)ethyl)amino)-1H-pyrazolo[3,4-d]pyrimidin-1-yl)-3,4-dihydroxytetrahydrofuran-2-yl)methoxy)methyl)phosphonic acid], which IC50 is on record?
Its IC50 is no more than 500 nM.

`O=C(CP(=O)(O)O)N(Cc1ccccc1)C[C@H]1O[C@@H](n2ncc3c(NCc4ccccc4Cl)nc(Cl)nc32)[C@H](O)[C@@H]1O` [Example 28, (2-(benzyl(((2R,3S,4R,5R)-5-(6-chloro-4-((2-chlorobenzyl)amino)-1H-pyrazolo[3,4-d]pyrimidin-1-yl)-3,4-dihydroxytetrahydrofuran-2-yl)methyl)amino)-2-oxoethyl)phosphonic acid] was tested. Which IC50 did it give?
The IC50 was greater than 1000 nM.

Which IC50 does the source give for `O=P(O)(O)CS(=O)(=O)C[C@H]1O[C@@H](n2ncc3c(NC4CCCC4)nc(CO)nc32)[C@H](O)[C@@H]1O` [Example 125, (((((2S,3S,4R,5R)-5-(4-(cyclopentylamino)-6-(hydroxymethyl)-1H-pyrazolo[3,4-d]pyrimidin-1-yl)-3,4-dihydroxytetrahydrofuran-2-yl)methyl)sulfonyl)methyl)phosphonic acid] here?
Its IC50 is no more than 500 nM.

`O=P(O)(O)CS(=O)(=O)C[C@H]1O[C@@H](n2ncc3c(NCC4CC4)nc(Cl)nc32)[C@H](O)[C@@H]1O` [Example 62] was tested. Which IC50 did it give?
Its IC50 is no more than 500 nM.

Which IC50 does the source give for `Cn1ncc2cccc(CNc3nc(Cl)nc4c3cnn4[C@@H]3O[C@H](COCP(=O)(O)O)[C@@H](O)[C@H]3O)c21` [Example 48, ((((2R,3S,4R,5R)-5-(6-chloro-4-(((1-methyl-1H-indazol-7-yl)methyl)amino)-1H-pyrazolo[3,4-d]pyrimidin-1-yl)-3,4-dihydroxytetrahydrofuran-2-yl)methoxy)methyl)phosphonic acid] here?
Its IC50 is no more than 500 nM.

For `O=P(O)(O)COC[C@H]1O[C@@H](n2nnc3c(NC4CCCC4)nc(Cl)nc32)[C@H](O)[C@@H]1O` [Example 95, ((((2R,3S,4R,5R)-5-(5-chloro-7-(cyclopentylamino)-3H-[1,2,3]triazolo[4,5-d]pyrimidin-3-yl)-3,4-dihydroxytetrahydrofuran-2-yl)methoxy)methyl)phosphonic acid], which IC50 is on record?
The IC50 was no more than 500 nM.

Which IC50 does the source give for `C[C@@H](Nc1nc(Cl)nc2c1cnn2[C@@H]1O[C@H](COCP(=O)(O)O)[C@@H](O)[C@H]1O)C1CC1` [Example 92, ((((2R,3S,4R,5R)-5-(6-chloro-4-(((R)-1-cyclopropylethyl)amino)-1H-pyrazolo[3,4-d]pyrimidin-1-yl)-3,4-dihydroxytetrahydrofuran-2-yl)methoxy)methyl)phosphonic acid] here?
The IC50 was no more than 500 nM.

`C[C@@H]1CCC[C@@H]1Nc1nc(Cl)nc2c1cnn2[C@@H]1O[C@H](CS(=O)(=O)CP(=O)(O)O)[C@@H](O)[C@H]1O` [Example 135, (((((2S,3S,4R,5R)-5-(6-chloro-4-(((1S,2R)-2-methylcyclopentyl)amino)-1H-pyrazolo[3,4-d]pyrimidin-1-yl)-3,4-dihydroxytetrahydrofuran-2-yl)methyl)sulfonyl)methyl)phosphonic acid] was tested. Which IC50 did it give?
Its IC50 is no more than 500 nM.

With `CN(C[C@H]1O[C@@H](n2ncc3c(NCc4ccccc4Cl)nc(Cl)nc32)[C@H](O)[C@@H]1O)C(=O)CP(=O)(O)O` [Example 9, (2-((((2R,3S,4R,5R)-5-(6-chloro-4-((2-chlorobenzyl)amino)-1H-pyrazolo[3,4-d]pyrimidin-1-yl)-3,4-dihydroxytetrahydrofuran-2-yl)methyl)(methyl)amino)-2-oxoethyl)phosphonic acid] as the compound, how does the IC50 read?
The IC50 was no more than 500 nM.

How did the IC50 turn out when `O=P(O)(O)COC[C@H]1O[C@@H](n2ncc3c(NC4CCC4)nc(Cl)nc32)[C@H](O)[C@@H]1O` [Example 79, ((((2R,3S,4R,5R)-5-(6-chloro-4-(cyclobutylamino)-1H-pyrazolo[3,4-d]pyrimidin-1-yl)-3,4-dihydroxytetrahydrofuran-2-yl)methoxy)methyl)phosphonic acid] was run?
The IC50 was no more than 500 nM.

For `O=P(O)(O)CS(=O)(=O)C[C@H]1O[C@@H](n2nnc3c(NCc4cccc(Cl)c4)nc(Cl)nc32)[C@H](O)[C@@H]1O` [Example 122], which IC50 is on record?
The IC50 was no more than 500 nM.

How did the IC50 turn out when `O=P(O)(O)CS(=O)(=O)C[C@H]1O[C@@H](n2nnc3c(NC4Cc5ccccc5C4)nc(Cl)nc32)[C@H](O)[C@@H]1O` [Example 121, (((((2S,3S,4R,5R)-5-(5-chloro-7-((2,3-dihydro-1H-inden-2-yl)amino)-3H-[1,2,3]triazolo[4,5-d]pyrimidin-3-yl)-3,4-dihydroxytetrahydrofuran-2-yl)methyl)sulfonyl)methyl)phosphonic acid] was run?
Its IC50 is no more than 500 nM.

How did the IC50 turn out when `O=P(O)(O)CS(=O)(=O)NC[C@H]1O[C@@H](n2ncc3c(NCc4ccccc4Cl)nc(Cl)nc32)[C@H](O)[C@@H]1O` [Example 3, ((N-(((2R,3S,4R,5R)-5-(6-Chloro-4-((2-chlorobenzyl)amino)-1H-pyrazolo[3,4-d]pyrimidin-1-yl)-3,4-dihydroxytetrahydrofuran-2-yl)methyl)sulfamoyl)methyl)phosphonic acid] was run?
Its IC50 is no more than 500 nM.

`O=P(O)(O)COC[C@H]1O[C@@H](n2ncc3c(NC[C@@H]4CCCO4)nc(Cl)nc32)[C@H](O)[C@@H]1O` [Example 69, ((((2R,3S,4R,5R)-5-(6-chloro-4-((((S)-tetrahydrofuran-2-yl)methyl)amino)-1H-pyrazolo[3,4-d]pyrimidin-1-yl)-3,4-dihydroxytetrahydrofuran-2-yl)methoxy)methyl)phosphonic acid] was tested. Which IC50 did it give?
Its IC50 is no more than 500 nM.

`O=P(O)(O)COC[C@H]1O[C@@H](n2ncc3c(N4CCOCC4)nc(Cl)nc32)[C@H](O)[C@@H]1O` [Example 42, ((((2R,3S,4R,5R)-5-(6-chloro-4-morpholino-1H-pyrazolo[3,4-d]pyrimidin-1-yl)-3,4-dihydroxytetrahydrofuran-2-yl)methoxy)methyl)phosphonic acid] was tested. Which IC50 did it give?
Its IC50 is no more than 500 nM.

How did the IC50 turn out when `Cc1ccc(-c2nc(Cl)nc3c2cnn3[C@@H]2O[C@H](COCP(=O)(O)O)[C@@H](O)[C@H]2O)o1` [Example 100, ((((2R,3S,4R,5R)-5-(6-chloro-4-(5-methylfuran-2-yl)-1H-pyrazolo[3,4-d]pyrimidin-1-yl)-3,4-dihydroxytetrahydrofuran-2-yl)methoxy)methyl)phosphonic acid] was run?
Its IC50 is no more than 500 nM.

How did the IC50 turn out when `CN(Cc1cccc(Cl)c1)c1nc(Cl)nc2c1nnn2[C@@H]1O[C@H](COCP(=O)(O)O)[C@@H](O)[C@H]1O` [Example 39, ((((2R,3S,4R,5R)-5-(5-chloro-7-((3-chlorobenzyl)(methyl)amino)-3H-[1,2,3]triazolo[4,5-d]pyrimidin-3-yl)-3,4-dihydroxytetrahydrofuran-2-yl)methoxy)methyl)phosphonic acid] was run?
Its IC50 is no more than 500 nM.

With “((((1R,2R,3S,4R)-4-(5-Chloro-7-(((R)-2,3-dihydro-1H-inden-1-yl)amino)-3H-[1,2,3]triazolo[4,5-d]pyrimidin-3-yl)-2,3-dihydroxycyclopentyl)methoxy)methyl)phosphonic acid [Example 23]” as the compound, how does the IC50 read?
The IC50 was no more than 500 nM.

With `CN(C[C@H]1O[C@@H](n2nnc3c(NC4CCCC4)nc(Cl)nc32)[C@H](O)[C@@H]1O)C(=O)CP(=O)(O)O` [Example 115, (2-((((2R,3S,4R,5R)-5-(5-chloro-7-(cyclopentylamino)-3H-[1,2,3]triazolo[4,5-d]pyrimidin-3-yl)-3,4-dihydroxytetrahydrofuran-2-yl)methyl)(methyl)amino)-2-oxoethyl)phosphonic acid] as the compound, how does the IC50 read?
The IC50 was 500 to 1000 nM.

Which IC50 does the source give for `O=P(O)(O)CS(=O)(=O)C[C@H]1O[C@@H](n2ncc3c(NCc4ccc(F)cc4)nc(Cl)nc32)[C@H](O)[C@@H]1O` [Example 117, (((((2S,3S,4R,5R)-5-(6-chloro-4-((4-fluorobenzyl)amino)-1H-pyrazolo[3,4-d]pyrimidin-1-yl)-3,4-dihydroxytetrahydrofuran-2-yl)methyl)sulfonyl)methyl)phosphonic acid] here?
The IC50 was no more than 500 nM.

With `C[C@@H](c1cccc(Cl)c1)N(C)c1nc(Cl)nc2c1cnn2[C@@H]1O[C@H](COCP(=O)(O)O)[C@@H](O)[C@H]1O` [Example 36] as the compound, how does the IC50 read?
Its IC50 is greater than 1000 nM.

How did the IC50 turn out when `C[C@H](Nc1nc(Cl)nc2c1cnn2[C@@H]1O[C@H](COCP(=O)(O)O)[C@@H](O)[C@H]1O)C1CC1` [Example 91, ((((2R,3S,4R,5R)-5-(6-chloro-4-(((S)-1-cyclopropylethyl)amino)-1H-pyrazolo[3,4-d]pyrimidin-1-yl)-3,4-dihydroxytetrahydrofuran-2-yl)methoxy)methyl)phosphonic acid] was run?
The IC50 was no more than 500 nM.

Which IC50 does the source give for `O=C(CP(=O)(O)O)NC[C@H]1O[C@@H](n2ncc3c(NCc4ccccc4Cl)nc(Cl)nc32)[C@H](O)[C@@H]1O` [Example 2, (2-((((2R,3S,4R,5R)-5-(6-Chloro-4-((2-chlorobenzyl)amino)-1H-pyrazolo[3,4-d]pyrimidin-1-yl)-3,4-dihydroxytetrahydrofuran-2-yl)methyl)amino)-2-oxoethyl)phosphonic acid] here?
The IC50 was greater than 1000 nM.

How did the IC50 turn out when `O=P(O)(O)CS(=O)(=O)C[C@H]1O[C@@H](n2ncc3c(NCc4ccccc4Cl)nc(Cl)nc32)[C@H](O)[C@@H]1O` [Example 14, (((((2S,3S,4R,5R)-5-(6-Chloro-4-((2-chlorobenzyl)amino)-1H-pyrazolo[3,4-d]pyrimidin-1-yl)-3,4-dihydroxytetrahydrofuran-2-yl)methyl)sulfonyl)methyl)phosphonic acid] was run?
Its IC50 is no more than 500 nM.

With `N#Cc1cccc(CNc2nc(Cl)nc3c2cnn3[C@@H]2O[C@H](COCP(=O)(O)O)[C@@H](O)[C@H]2O)c1` [Example 46, ((((2R,3S,4R,5R)-5-(6-chloro-4-((3-cyanobenzyl)amino)-1H-pyrazolo[3,4-d]pyrimidin-1-yl)-3,4-dihydroxytetrahydrofuran-2-yl)methoxy)methyl)phosphonic acid] as the compound, how does the IC50 read?
Its IC50 is no more than 500 nM.
